Test results reported in PubChem BioAssay (NCI).
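Cultured in 96-well plates, cells were exposed to test compound for 48 hours across five concentrations. At the GI50, growth is halved. Definition used: TGI = concentration required for complete inhibition of growth.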

Columns and labels:
Test in all cases: growth of human tumour cells (NCI), 48 h
NCI-H23 lung = test system: NCI-H23 lung
NCI-H522 lung = test system: NCI-H522 lung
HCC-2998 colon = test system: HCC-2998 colon
K-562 leukemia = test system: K-562 leukemia
SK-OV-3 ovarian = test system: SK-OV-3 ovarian
HS 578T breast = test system: HS 578T breast
OVCAR-8 ovarian = test system: OVCAR-8 ovarian
TK-10 renal = test system: TK-10 renal
EKVX NSCLC = test system: EKVX NSCLC
SF-539 CNS = test system: SF-539 CNS
SNB-19 CNS = test system: SNB-19 CNS
NCI-H226 lung = test system: NCI-H226 lung
CAKI-1 renal = test system: CAKI-1 renal
MOLT-4 leukemia = test system: MOLT-4 leukemia
SNB-75 CNS = test system: SNB-75 CNS
U251 CNS = test system: U251 CNS
A549 NSCLC = test system: A549 NSCLC
UO-31 renal = test system: UO-31 renal
T-47D breast = test system: T-47D breast
HL-60(TB) leukemia = test system: HL-60(TB) leukemia
HT29 colon = test system: HT29 colon
786-0 renal = test system: 786-0 renal
OVCAR-4 ovarian = test system: OVCAR-4 ovarian
M14 melanoma = test system: M14 melanoma
SK-MEL-2 melanoma = test system: SK-MEL-2 melanoma
SF-295 CNS = test system: SF-295 CNS
DU-145 prostate = test system: DU-145 prostate
CCRF-CEM leukemia = test system: CCRF-CEM leukemia
UACC-62 melanoma = test system: UACC-62 melanoma
SK-MEL-28 melanoma = test system: SK-MEL-28 melanoma
COLO 205 colon = test system: COLO 205 colon
UACC-257 melanoma = test system: UACC-257 melanoma
NCI-H460 lung = test system: NCI-H460 lung
MCF7 breast = test system: MCF7 breast
SF-268 CNS = test system: SF-268 CNS
BT-549 breast = test system: BT-549 breast
KM12 colon = test system: KM12 colon
A498 renal = test system: A498 renal
NCI/ADR-RES ovarian = test system: NCI/ADR-RES ovarian
HCT-116 colon = test system: HCT-116 colon
SW-620 colon = test system: SW-620 colon
SK-MEL-5 melanoma = test system: SK-MEL-5 melanoma
HOP-92 NSCLC = test system: HOP-92 NSCLC
RXF 393 renal = test system: RXF 393 renal
HCT-15 colon = test system: HCT-15 colon
MDA-MB-231 breast = test system: MDA-MB-231 breast
SR leukemia = test system: SR leukemia
OVCAR-5 ovarian = test system: OVCAR-5 ovarian
PC-3 prostate = test system: PC-3 prostate
IGROV1 ovarian = test system: IGROV1 ovarian
SN12C renal = test system: SN12C renal
RPMI-8226 leukemia = test system: RPMI-8226 leukemia
MDA-MB-435 = test system: MDA-MB-435
HOP-62 NSCLC = test system: HOP-62 NSCLC
ACHN renal = test system: ACHN renal
MALME-3M melanoma = test system: MALME-3M melanoma

Compound: O=C(NCCCNc1cc(-c2cn(-c3ccccc3)nc2-c2cccc(O)c2)ccn1)Nc1ccc(F)cc1
- GI50 (NCI-H23 lung): 3.11 µM
- TGI (NCI-H23 lung): 7.65 µM
- GI50 (NCI-H522 lung): 4.03 µM
- TGI (NCI-H522 lung): 9.49 µM
- GI50 (HCC-2998 colon): 1.09 µM
- TGI (HCC-2998 colon): 4.05 µM
- GI50 (K-562 leukemia): 0.812 µM
- TGI (K-562 leukemia): 25 µM
- GI50 (SK-OV-3 ovarian): 3.12 µM
- TGI (SK-OV-3 ovarian): 10.8 µM
- GI50 (HS 578T breast): 0.984 µM
- TGI (HS 578T breast): 5.31 µM
- GI50 (OVCAR-8 ovarian): 2.13 µM
- TGI (OVCAR-8 ovarian): 9.26 µM
- GI50 (TK-10 renal): 6.78 µM
- TGI (TK-10 renal): 20.3 µM
- GI50 (EKVX NSCLC): 2.74 µM
- TGI (EKVX NSCLC): 9.51 µM
- GI50 (SF-539 CNS): 1.98 µM
- TGI (SF-539 CNS): 5.38 µM
- GI50 (SNB-19 CNS): 3.29 µM
- TGI (SNB-19 CNS): 9.75 µM
- GI50 (NCI-H226 lung): 3.39 µM
- TGI (NCI-H226 lung): 8.91 µM
- GI50 (CAKI-1 renal): 2.04 µM
- TGI (CAKI-1 renal): 10.7 µM
- GI50 (MOLT-4 leukemia): 1.25 µM
- TGI (MOLT-4 leukemia): 15.6 µM
- GI50 (SNB-75 CNS): 0.543 µM
- TGI (SNB-75 CNS): 3.18 µM
- GI50 (U251 CNS): 2.05 µM
- TGI (U251 CNS): 7.55 µM
- GI50 (A549 NSCLC): 3.12 µM
- TGI (A549 NSCLC): 21.7 µM
- GI50 (UO-31 renal): 1.58 µM
- TGI (UO-31 renal): 9.7 µM
- GI50 (T-47D breast): 1.89 µM
- TGI (T-47D breast): 11 µM
- GI50 (HL-60(TB) leukemia): 2.15 µM
- TGI (HL-60(TB) leukemia): 14.2 µM
- GI50 (HT29 colon): 1.09 µM
- TGI (HT29 colon): 4.99 µM
- GI50 (786-0 renal): 0.855 µM
- TGI (786-0 renal): 3.61 µM
- GI50 (OVCAR-4 ovarian): 1.46 µM
- TGI (OVCAR-4 ovarian): 8.21 µM
- GI50 (M14 melanoma): 1.57 µM
- TGI (M14 melanoma): 5.85 µM
- GI50 (SK-MEL-2 melanoma): 4 µM
- TGI (SK-MEL-2 melanoma): 10.1 µM
- GI50 (SF-295 CNS): 1.38 µM
- TGI (SF-295 CNS): 4.84 µM
- GI50 (DU-145 prostate): 4.22 µM
- TGI (DU-145 prostate): 19.3 µM
- GI50 (CCRF-CEM leukemia): 1.42 µM
- TGI (CCRF-CEM leukemia): 25 µM
- GI50 (UACC-62 melanoma): 3.14 µM
- TGI (UACC-62 melanoma): 6.6 µM
- GI50 (SK-MEL-28 melanoma): 2.54 µM
- TGI (SK-MEL-28 melanoma): 5.64 µM
- GI50 (COLO 205 colon): 2.34 µM
- TGI (COLO 205 colon): 6.28 µM
- GI50 (UACC-257 melanoma): 3.07 µM
- TGI (UACC-257 melanoma): 7.54 µM
- GI50 (NCI-H460 lung): 2.35 µM
- TGI (NCI-H460 lung): 5.88 µM
- GI50 (MCF7 breast): 2.32 µM
- TGI (MCF7 breast): 6.04 µM
- GI50 (SF-268 CNS): 2.61 µM
- TGI (SF-268 CNS): 11.2 µM
- GI50 (BT-549 breast): 2.18 µM
- TGI (BT-549 breast): 11.6 µM
- GI50 (KM12 colon): 2.61 µM
- TGI (KM12 colon): 5.79 µM
- GI50 (A498 renal): 1.21 µM
- TGI (A498 renal): 4.96 µM
- GI50 (NCI/ADR-RES ovarian): 3.51 µM
- TGI (NCI/ADR-RES ovarian): 12.5 µM
- GI50 (HCT-116 colon): 1.62 µM
- TGI (HCT-116 colon): 5.82 µM
- GI50 (SW-620 colon): 3.04 µM
- TGI (SW-620 colon): 6.73 µM
- GI50 (SK-MEL-5 melanoma): 1.64 µM
- TGI (SK-MEL-5 melanoma): 4.83 µM
- GI50 (HOP-92 NSCLC): 0.86 µM
- TGI (HOP-92 NSCLC): 4.97 µM
- GI50 (RXF 393 renal): 0.966 µM
- TGI (RXF 393 renal): 4.85 µM
- GI50 (HCT-15 colon): 0.936 µM
- TGI (HCT-15 colon): 4.04 µM
- GI50 (MDA-MB-231 breast): 2.18 µM
- TGI (MDA-MB-231 breast): 7.78 µM
- GI50 (SR leukemia): 1.51 µM
- TGI (SR leukemia): 13.8 µM
- GI50 (OVCAR-5 ovarian): 3.37 µM
- TGI (OVCAR-5 ovarian): 9.12 µM
- GI50 (PC-3 prostate): 1.33 µM
- TGI (PC-3 prostate): 8.92 µM
- GI50 (IGROV1 ovarian): 1.23 µM
- TGI (IGROV1 ovarian): 5.82 µM
- GI50 (SN12C renal): 2.79 µM
- TGI (SN12C renal): 8.37 µM
- GI50 (RPMI-8226 leukemia): 0.865 µM
- TGI (RPMI-8226 leukemia): 5.47 µM
- GI50 (MDA-MB-435): 1.66 µM
- TGI (MDA-MB-435): 5.05 µM
- GI50 (HOP-62 NSCLC): 3.24 µM
- TGI (HOP-62 NSCLC): 9.26 µM
- GI50 (ACHN renal): 3.16 µM
- TGI (ACHN renal): 14.2 µM
- GI50 (MALME-3M melanoma): 0.826 µM
- TGI (MALME-3M melanoma): 3.42 µM
